Experimental data reported in patent publication US9144239B2, “Macrocyclic picolinamides as fungicides” (DOW AGROSCIENCES LLC, priority 2012, dated 2015).
Where two headings read alike, the source gives them in different places.

Assays:
Assay type in all cases: in vivo
[1] = system: Alternaria solani; assay: Fungicidal activity: tomato early blight (ALTESO); conditions: 24 h, 1 Day Protectant, read-out: Disease Control ALTESO 1DP
Method: Technical grades of materials were dissolved in acetone, which were then mixed with nine volumes of water containing 110 ppm Triton X-100. The fungicide solutions were applied onto wheat seedlings using an automated booth sprayer to run-off. All sprayed plants were allowed to air dry prior to further handling. Wheat plants (variety Yuma) were grown from seed in a greenhouse in 50% mineral soil/50% soil-less Metro mix until the first leaf was fully emerged, with 7-10 seedlings per pot. These plants were inoculated with an aqueous spore suspension of Septoria tritici either prior to or after fungicide treatments. After inoculation the plants were kept in 100% relative humidity (one day in a dark dew chamber followed by two to three days in a lighted dew chamber at 20° C.) to permit spores to germinate and infect the leaf. The plants were then transferred to a greenhouse set at 20° C. for disease to develop. When disease symptoms were fully expressed on the 1st leaves of untreated plants, infection levels were assessed on a scale of 0 to 100 percent disease severity. Percent disease control was calculated using the ratio of disease severity on treated plants relative to untreated plants. Evaluation of Fungicidal Activity: Tomato Early Blight (Alternaria solani; Bayer Code […]) Tomato plants (variety Outdoor girl) were propagated in soil-less Metro mix, with each pot having one plant, and used when 12 to 14 days old. Test plants were inoculated with an aqueous spore suspension of Alternaria solani 24 hr after fungicide treatments. After inoculation the plants were kept in 100% relative humidity (one day in a dark dew chamber followed by two to three days in a lighted dew chamber at 20° C.) to permit spores to germinate and infect the leaf. The plants were then transferred to a growth room at 22° C. for disease to develop. Fungicide formulation, application and disease assessment on the sprayed leaves followed the procedures as described in the Example A.

[2] = system: Uncinula necator; assay: Fungicidal activity: grape powdery mildew (UNCINE); conditions: Erysiphe necator, 24 h, 1 Day Protectant, read-out: Disease Control UNCINE 1 DP
Method: Technical grades of materials were dissolved in acetone, which were then mixed with nine volumes of water containing 110 ppm Triton X-100. The fungicide solutions were applied onto wheat seedlings using an automated booth sprayer to run-off. All sprayed plants were allowed to air dry prior to further handling. Wheat plants (variety Yuma) were grown from seed in a greenhouse in 50% mineral soil/50% soil-less Metro mix until the first leaf was fully emerged, with 7-10 seedlings per pot. These plants were inoculated with an aqueous spore suspension of Septoria tritici either prior to or after fungicide treatments. After inoculation the plants were kept in 100% relative humidity (one day in a dark dew chamber followed by two to three days in a lighted dew chamber at 20° C.) to permit spores to germinate and infect the leaf. The plants were then transferred to a greenhouse set at 20° C. for disease to develop. When disease symptoms were fully expressed on the 1st leaves of untreated plants, infection levels were assessed on a scale of 0 to 100 percent disease severity. Percent disease control was calculated using the ratio of disease severity on treated plants relative to untreated plants. Evaluation of Fungicidal Activity: Grape Powdery Mildew (Uncinula necator; Bayer Code […]) Grape seedlings (variety Carignane) were grown in soil-less Metro mix, with one plant per pot, and used in the test when approximately one month old. Plants were inoculated 24 hr after fungicide treatment by shaking spores from infected leaves over test plants. Plants were maintained in a greenhouse set at 20° C. until disease was fully developed. Fungicide formulation, application and disease assessment on the sprayed leaves followed the procedures as described in the Example A.

[3] = system: Mycosphaerella graminicola; anamorph: Septoria tritici; assay: Fungicidal activity: leaf blotch of wheat (SEPTTR), wheat seedlings; conditions: Zymoseptoria tritici, 100 ppm, wheat
Procedure, shortened: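 Percent control derives from disease severity on treated versus untreated first leaves, rated 0–100% when symptoms were fully expressed on untreated plants. Yuma seedlings were inoculated with S. tritici spores either before or after spraying to run-off. The spray was acetone solution diluted 1:9 in water with 110 ppm Triton X-100. Infection took place in 100% RH dew chambers, then a 20 °C greenhouse.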

[4] = system: Puccinia triticina; synonym: Puccinia recondita f. sp. tritici; assay: Fungicidal activity: wheat brown rust (PUCCRT), wheat seedlings; conditions: 100 ppm, wheat
Procedure, shortened: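 Wheat (Yuma) seedlings at first-leaf stage, inoculated with Puccinia triticina spores before or after treatment, held overnight in dark dew room at 22° C, 100% RH, then greenhouse at 24° C. Acetone solutions diluted with nine volumes water containing 110 ppm Triton X-100, sprayed to run-off. Percent disease control derived from severity (0–100%) relative to untreated plants.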

[5] = 24 h, 1 Day Protectant, read-out: Disease Control SEPTTR 1DP
[6] = 72 h, 3 Day Curative, read-out: Disease Control SEPTTR 3DC
[7] = 24 h, 1 Day Protectant, read-out: Disease Control PUCCRT 1DP
[8] = 72 h, 3 Day Curative, read-out: Disease Control PUCCRT 3DC

Row | SMILES | pest or weed control at 100 ppm [1] [%] | pest or weed control at 100 ppm [2] [%] | pest or weed control at 100 ppm [3, 5] [%] | pest or weed control at 100 ppm [3, 6] [%] | pest or weed control at 100 ppm [4, 7] [%] | pest or weed control at 100 ppm [4, 8] [%]
1 | COc1ccnc(C(=O)N[C@H]2COC[C@H](OCC(C)C)[C@@H](OC3CCCCC3)[C@H](C)OC2=O)c1OCOC(C)=O [Compound 77] | 0 to 80 | 80 to 100 | 80 to 100 | 80 to 100 | 80 to 100 | 80 to 100
2 | CCC(C)(C)O[C@H]1COC[C@H](NC(=O)c2nccc(OC)c2OCOC(C)=O)C(=O)O[C@@H](C)[C@@H]1OCC(C)C [Compound 78] | 0 to 80 | 80 to 100 | 80 to 100 | 80 to 100 | 80 to 100 | 80 to 100
3 | COc1ccnc(C(=O)N[C@H]2COC[C@H](Oc3ccccc3)[C@@H](Oc3ccccc3)[C@H](C)OC2=O)c1OCOC(C)=O [Compound 84] | 0 to 80 | 0 to 80 | 80 to 100 | 80 to 100 | 80 to 100 | 80 to 100
4 | COc1ccnc(C(=O)N[C@H]2COC[C@H](OCC(C)C)[C@@H](Oc3ccccc3)[C@H](C)OC2=O)c1OCOC(C)=O [Compound 85] | 0 to 80 | 80 to 100 | 80 to 100 | 80 to 100 | 80 to 100 | 80 to 100
5 | COc1ccnc(C(=O)N[C@H]2COC[C@H](Oc3ccccc3)[C@@H](OCC(C)C)[C@H](C)OC2=O)c1OCOC(C)=O [Compound 86] | 80 to 100 | 80 to 100 | 80 to 100 | 80 to 100 | 80 to 100 | 80 to 100
6 | CCCO[C@H]1COC[C@H](NC(=O)c2nccc(OC)c2OCOC(C)=O)C(=O)O[C@@H](C)[C@@H]1Oc1ccccc1 [Compound 221] |  |  | 80 to 100 | 80 to 100 | 80 to 100 | 80 to 100
7 | CCCO[C@H]1[C@H](C)OC(=O)[C@@H](NC(=O)c2nccc(OC)c2OCOC(C)=O)COC[C@@H]1Oc1ccccc1 [Compound 222] | 0 to 80 |  | 80 to 100 | 80 to 100 | 80 to 100 | 80 to 100
8 | COc1ccnc(C(=O)N[C@H]2COC[C@H](Oc3ccc(F)cc3)[C@@H](Oc3ccc(F)cc3)[C@H](C)OC2=O)c1OC(C)=O [Compound 229, 2-(((3S,7S,8S,9S)-7,8-bis(4-fluorophenoxy)-9-methyl-2-oxo-1,5-dioxonan-3-yl)carbamoyl)-4-methoxypyridin-3-yl acetate] | 0 to 80 | 80 to 100 |  |  |  | 
9 | COc1ccnc(C(=O)N[C@H]2COC[C@H](Oc3ccc(F)cc3)[C@@H](Oc3ccc(F)cc3)[C@H](C)OC2=O)c1OCOC(C)=O [Compound 231] | 0 to 80 | 80 to 100 |  |  |  | 
